Source: patent US20250388604A1, “Compounds and Their Use as PDE4 Activators” (Mironid Limited, priority 2022, published 2025)

The molecules below were run on m-IMCD3 cells (assay: Inhibition of PGE2-stimulated in vitro cyst formation in m-IMCD3 cells). Settings: Mus musculus, mIMCD3, 144 h, 3 μM; mean cyst area, 100% for (DMSO + PGE2) and 0% for DMSO control; 6 days of culture; read-out: % Cyst area after incubation with 3 μM test compound.
Type: cell-based, mouse
Procedure, shortened: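 Mean cyst area after 6 days, expressed relative to DMSO+PGE2 (100%) and DMSO alone (0%), from z-stack images. Mouse m-IMCD3 spheroids grew in collagen I/Matrigel gels and received PGE2 (100 nM final) with test compound (0.1% DMSO) starting 18–24 h post-plating, media refreshed at day 2 or 3.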

In order of falling activity at 3 µM:
1. O=C(c1cccc2cccnc12)N1CCc2nc(N3C4CCC3CNC4)sc2C1 [Example 237, (2-(3,8-diazabicyclo[3.2.1]octan-8-yl)-6,7-dihydrothiazolo[5,4-c]pyridin-5(4H)-yl)(quinolin-8-yl)methanone]  37%
2. CC(F)(F)c1ccccc1C(=O)N1CCc2nc(N3C4CCC3CNC4)sc2C1 [Example 223, (2-(3,8-diazabicyclo[3.2.1]octan-8-yl)-6,7-dihydrothiazolo[5,4-c]pyridin-5(4H)-yl)(2-(1,1-difluoroethyl)phenyl)methanone]  14%
3. CC(C)(C)CC(=O)N1CCc2nc(N3CCNCC3)sc2C1 [Example 274, 3,3-dimethyl-1-(2-(piperazin-1-yl)-6,7-dihydrothiazolo[5,4-c]pyridin-5(4H)-yl) butan-1-one]  14%
4. O=C(c1ccc(Cl)nc1)N1CCc2nc(N3C4CCC3CNC4)sc2C1 [Example 221, (2-(3,8-diazabicyclo[3.2.1]octan-8-yl)-6,7-dihydrothiazolo[5,4-c]pyridin-5(4H)-yl)(6-chloropyridin-3-yl)methanone]  0%
5. Cc1ccc(C(=O)N2CCc3nc(N4C5CCC4CNC5)sc3C2)c(C)c1 [Example 225, (2-(3,8-diazabicyclo[3.2.1]octan-8-yl)-6,7-dihydrothiazolo[5,4-c]pyridin-5(4H)-yl)(2,4-dimethylphenyl)methanone]  -1%
6. N#Cc1ccc(C(=O)N2CCc3nc(N4C5CCC4CNC5)sc3C2)cc1 [Example 239, 4-(2-(3,8-diazabicyclo[3.2.1]octan-8-yl)-4,5,6,7-tetrahydrothiazolo[5,4-c]pyridine-5-carbonyl)benzonitrile]  -2%
7. O=S(=O)(Cc1ccc(F)cc1)N1CCc2nc(N3CCNCC3)sc2C1 [Example 287, 5-((4-fluorobenzyl)sulfonyl)-2-(piperazin-1-yl)-4,5,6,7-tetrahydrothiazolo[5,4-c]pyridine]  -3%
8. CCN1CC2CCC(C1)N2c1nc2c(s1)CN(C(=O)N[C@@H]1CCOc3ccccc31)CC2 [Example 295, N—((R)-chroman-4-yl)-2-(3-ethyl-3,8-diazabicyclo[3.2.1]octan-8-yl)-6,7-dihydrothiazolo[5,4-c]pyridine-5(4H)-carboxamide]  -4%
9. O=C(c1ccccc1F)N1CCc2nc(N3C4CCC3CNC4)sc2C1 [Example 209, (2-(3,8-diazabicyclo[3.2.1]octan-8-yl)-6,7-dihydrothiazolo[5,4-c]pyridin-5(4H)-yl)(2-fluorophenyl)methanone]  -5%

Same assay, conditions: Mus musculus, mIMCD3, 144 h, 10 μM; mean cyst area, 100% for (DMSO + PGE2) and 0% for DMSO control; 6 days of culture; read-out: % Cyst area after incubation with 10 μM test compound

In order of falling activity at 10 µM:
1. O=C(CC1CCCC1)N1Cc2sc(N3C4CCC3CNC4)nc2C2(CCOCC2)C1 [Example 266, 1-(2′-(3,8-diazabicyclo[3.2.1]octan-8-yl)-2,3,5,6-tetrahydro-4′H-spiro[pyran-4,7′-thiazolo[5,4-c]pyridin]-5′(6′H)-yl)-2-cyclopentylethan-1-one]  40%
2. COc1ccccc1OCC(=O)N1CCc2nc(N3C4CCC3CNC4)sc2C1 [Example 138, 1-(2-(3,8-diazabicyclo[3.2.1]octan-8-yl)-6,7-dihydrothiazolo[5,4-c]pyridin-5(4H)-yl)-2-(2-methoxyphenoxy)ethan-1-one]  0%
3. O=C(Nc1ccccc1)N1CCc2nc(N3C4CCC3CNC4)sc2C1 [Example 57, 2-(3,8-diazabicyclo[3.2.1]octan-8-yl)-N-phenyl-6,7-dihydrothiazolo[5,4-c]pyridine-5(4H)-carboxamide]  -3%
4. CC1(CC(=O)N2CCc3nc(N4C5CCC4CNC5)sc3C2)CCC1 [Example 130, 1-(2-(3,8-diazabicyclo[3.2.1]octan-8-yl)-6,7-dihydrothiazolo[5,4-c]pyridin-5(4H)-yl)-2-(1-methylcyclobutyl)ethan-1-one]  -5%
5. CCC(C)(C)C(=O)N1CCc2nc(N3C4CCC3CNC4)sc2C1 [Example 154, 1-(2-(3,8-diazabicyclo[3.2.1]octan-8-yl)-6,7-dihydrothiazolo[5,4-c]pyridin-5(4H)-yl)-2,2-dimethylbutan-1-one]  -13%
